# US20250144094A1 (Erasca, Inc., priority 2021, published 2025)
# Target: Recombinant human ULK1 (1-649) (Homo sapiens (Human), UniProt O75385)
# Test: ULK1 ADP Glo kinase activity assay, new method (ULKtide peptide substrate)
# Details: 25° C., 40 minutes, read-out: ULK1 biochemical IC50
# Summary of the method: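 GST-tagged human ULK1 (1-649) from Sf9 cells was reacted with ULKtide peptide and ATP for 40 min at 25 °C across 12-point compound dilutions from 10 μM. ADP formed was quantified by ADP-Glo luminescence; IC50 came from four-parameter fits relative to DMSO controls.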
# Sequence of Recombinant human ULK1 (1-649) (O75385 1-649): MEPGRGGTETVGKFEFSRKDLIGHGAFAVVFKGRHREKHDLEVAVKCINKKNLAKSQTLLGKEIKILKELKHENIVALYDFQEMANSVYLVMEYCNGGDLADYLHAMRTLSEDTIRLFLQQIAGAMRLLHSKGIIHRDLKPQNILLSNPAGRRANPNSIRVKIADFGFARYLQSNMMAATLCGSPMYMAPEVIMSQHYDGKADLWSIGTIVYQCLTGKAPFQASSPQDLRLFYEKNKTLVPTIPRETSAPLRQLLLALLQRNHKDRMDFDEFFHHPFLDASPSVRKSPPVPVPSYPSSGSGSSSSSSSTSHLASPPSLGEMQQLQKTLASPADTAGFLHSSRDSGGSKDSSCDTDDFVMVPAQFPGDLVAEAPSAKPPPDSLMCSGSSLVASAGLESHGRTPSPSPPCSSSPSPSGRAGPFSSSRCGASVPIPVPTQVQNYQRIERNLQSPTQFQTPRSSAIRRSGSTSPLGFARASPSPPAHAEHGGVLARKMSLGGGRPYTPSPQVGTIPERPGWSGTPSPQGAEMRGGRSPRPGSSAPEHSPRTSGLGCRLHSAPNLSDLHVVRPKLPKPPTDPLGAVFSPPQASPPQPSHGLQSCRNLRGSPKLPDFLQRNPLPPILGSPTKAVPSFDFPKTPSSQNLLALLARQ
row,SMILES,IC50
1,"CN1CCS(=O)(=O)c2cc(-c3nc(Nc4ccc(N5CCN(CC6COC6)CC5)cc4Cl)ncc3C(F)(F)F)sc2C1=O [Example 217, 7-(2-((2-chloro-4-(4-(oxetan-3-ylmethyl)piperazin-1-yl)phenyl)amino)-5-(trifluoromethyl)pyrimidin-4-yl)-4-methyl-3,4-dihydrothieno[2,3-f][1,4]thiazepin-5(2H)-one 1,1-dioxide]",≤ 5 nM
2,"O=C1c2sc(-c3nc(Nc4cc5c(cc4C4CC4)CCNC5)ncc3C(F)(F)F)cc2S(=O)(=O)CCN1C1CCC1 [Example 225, 4-cyclobutyl-7-(2-((6-cyclopropyl-1,2,3,4-tetrahydroisoquinolin-7-yl)amino)-5-(trifluoromethyl)pyrimidin-4-yl)-3,4-dihydrothieno[2,3-f][1,4]thiazepin-5(2H)-one 1,1-dioxide]",≤ 5 nM
3,"CCc1cc(N2CCNCC2)ccc1Nc1ncc(C(F)(F)F)c(-c2cc3c(s2)C(=O)N(C2CC2)CCS3(=O)=O)n1 [Example 264, 4-cyclopropyl-7-(2-((2-ethyl-4-(piperazin-1-yl)phenyl)amino)-5-(trifluoromethyl)pyrimidin-4-yl)-3,4-dihydrothieno[2,3-f][1,4]thiazepin-5(2H)-one 1,1-dioxide]",≤ 5 nM
4,"CCN1CCC(c2ccc(Nc3ncc(C(F)(F)F)c(-c4cc5c(s4)C(=O)N(C4CC4)CCS5(=O)=O)n3)c(C3CC3)c2)CC1 [Example 253, 4-cyclopropyl-7-(2-((2-cyclopropyl-4-(1-ethylpiperidin-4-yl)phenyl)amino)-5-(trifluoromethyl)pyrimidin-4-yl)-3,4-dihydrothieno[2,3-f][1,4]thiazepin-5(2H)-one 1,1-dioxide]",≤ 5 nM
5,"O=C1c2sc(-c3nc(Nc4cc5c(cc4Cl)CCNC5)ncc3C(F)(F)F)cc2S(=O)(=O)CCN1C1COC1 [Example 230, 7-(2-((6-chloro-1,2,3,4-tetrahydroisoquinolin-7-yl)amino)-5-(trifluoromethyl)pyrimidin-4-yl)-4-(oxetan-3-yl)-3,4-dihydrothieno[2,3-f][1,4]thiazepin-5(2H)-one 1,1-dioxide]",≤ 5 nM
6,"CN1CCc2cc(Nc3ncc(C(F)(F)F)c(-c4cc5c(s4)C(=O)N(C4CC4)CCS5(=O)=O)n3)c(Cl)cc2C1 [Example 167, 7-(2-((7-chloro-2-methyl-1,2,3,4-tetrahydroisoquinolin-6-yl)amino)-5-(trifluoromethyl)pyrimidin-4-yl)-4-cyclopropyl-3,4-dihydrothieno[2,3-f][1,4]thiazepin-5(2H)-one 1,1-dioxide]",≤ 5 nM
7,"O=C1c2sc(-c3nc(Nc4cc5c(cc4C4CC4)CNCC5)ncc3C(F)(F)F)cc2S(=O)(=O)CCN1CC(F)(F)F [Example 215, 7-(2-((7-cyclopropyl-1,2,3,4-tetrahydroisoquinolin-6-yl)amino)-5-(trifluoromethyl)pyrimidin-4-yl)-4-(2,2,2-trifluoroethyl)-3,4-dihydrothieno[2,3-f][1,4]thiazepin-5(2H)-one 1,1-dioxide]",≤ 5 nM

# Results, then the compound that gave them:
row,IC50,SMILES
1,≤ 5 nM,"C[C@H]1CN(c2ccc(Nc3ncc(C(F)(F)F)c(-c4cc5c(s4)C(=O)N(C4COC4)CCS5(=O)=O)n3)c(C3CC3)c2)CCN1C [Example 342, (S)-7-(2-((2-cyclopropyl-4-(3,4-dimethylpiperazin-1-yl)phenyl)amino)-5-(trifluoromethyl)pyrimidin-4-yl)-4-(oxetan-3-yl)-3,4-dihydrothieno[2,3-f][1,4]thiazepin-5(2H)-one 1,1-dioxide]"
2,≤ 5 nM,"C[C@@H]1CN(c2ccc(Nc3ncc(C(F)(F)F)c(-c4cc5c(s4)C(=O)N(C4CC4)CCS5(=O)=O)n3)c(C3CC3)c2)C[C@H](C)N1 [Example 326, 4-cyclopropyl-7-(2-((2-cyclopropyl-4-((3S,5R)-3,5-dimethylpiperazin-1-yl)phenyl)amino)-5-(trifluoromethyl)pyrimidin-4-yl)-3,4-dihydrothieno[2,3-f][1,4]thiazepin-5(2H)-one 1,1-dioxide]"
3,≤ 5 nM,"C[C@H]1CN(c2ccc(Nc3ncc(C(F)(F)F)c(-c4cc5c(s4)C(=O)N(C4CC4)CCS5(=O)=O)n3)c(C3CC3)c2)CCN1C [Example 332, (S)-4-cyclopropyl-7-(2-((2-cyclopropyl-4-(3,4-dimethylpiperazin-1-yl)phenyl)amino)-5-(trifluoromethyl)pyrimidin-4-yl)-3,4-dihydrothieno[2,3-f][1,4]thiazepin-5(2H)-one 1,1-dioxide]"
4,≤ 5 nM,"C[C@@H]1CN(c2ccc(Nc3ncc(C(F)(F)F)c(-c4cc5c(s4)C(=O)N(C4COC4)CCS5(=O)=O)n3)c(C3CC3)c2)C[C@H](C)N1C [Example 357, 7-(2-((2-cyclopropyl-4-((3S,5R)-3,4,5-trimethylpiperazin-1-yl)phenyl)amino)-5-(trifluoromethyl)pyrimidin-4-yl)-4-(oxetan-3-yl)-3,4-dihydrothieno[2,3-f][1,4]thiazepin-5(2H)-one 1,1-dioxide]"
5,≤ 5 nM,"CCc1cc(N2CCN(C3CC3)CC2)ccc1Nc1ncc(C(F)(F)F)c(-c2cc3c(s2)C(=O)N(C2CC2)CCS3(=O)=O)n1 [Example 294, 4-Cyclopropyl-7-(2-((4-(4-cyclopropylpiperazin-1-yl)-2-ethylphenyl)amino)-5-(trifluoromethyl)pyrimidin-4-yl)-3,4-dihydrothieno[2,3-f][1,4]thiazepin-5(2H)-one 1,1-dioxide]"
6,≤ 5 nM,"C[C@@H]1CN(c2ccc(Nc3ncc(C(F)(F)F)c(-c4cc5c(s4)C(=O)N(C4COC4)CCS5(=O)=O)n3)c(C3CC3)c2)C[C@H](C)N1 [Example 350, 7-(2-((2-cyclopropyl-4-((3S,5R)-3,5-dimethylpiperazin-1-yl)phenyl)amino)-5-(trifluoromethyl)pyrimidin-4-yl)-4-(oxetan-3-yl)-3,4-dihydrothieno[2,3-f][1,4]thiazepin-5(2H)-one 1,1-dioxide]"
7,≤ 5 nM,"C[C@@H]1CN(c2ccc(Nc3ncc(C(F)(F)F)c(-c4cc5c(s4)C(=O)N(C4COC4)CCS5(=O)=O)n3)c(C3CC3)c2)CCN1C [Example 316, (R)-7-(2-((2-cyclopropyl-4-(3,4-dimethylpiperazin-1-yl)phenyl)amino)-5-(trifluoromethyl)pyrimidin-4-yl)-4-(oxetan-3-yl)-3,4-dihydrothieno[2,3-f][1,4]thiazepin-5(2H)-one 1,1-dioxide]"
8,≤ 5 nM,"O=C1c2sc(-c3nc(Nc4cc5c(cc4OC(F)(F)F)CNCC5)ncc3C(F)(F)F)cc2S(=O)(=O)CCN1C1CC1 [Example 273, 4-cyclopropyl-7-(2-((7-(trifluoromethoxy)-1,2,3,4-tetrahydroisoquinolin-6-yl)amino)-5-(trifluoromethyl)pyrimidin-4-yl)-3,4-dihydrothieno[2,3-f][1,4]thiazepin-5(2H)-one 1,1-dioxide]"
9,≤ 5 nM,"CCc1cc2c(cc1Nc1ncc(C(F)(F)F)c(-c3cc4c(s3)C(=O)N(C3COC3)CCS4(=O)=O)n1)CCN(CC1COC1)C2 [Example 275, 7-(2-((7-ethyl-2-(oxetan-3-ylmethyl)-1,2,3,4-tetrahydroisoquinolin-6-yl)amino)-5-(trifluoromethyl)pyrimidin-4-yl)-4-(oxetan-3-yl)-3,4-dihydrothieno[2,3-f][1,4]thiazepin-5(2H)-one 1,1-dioxide]"
